Reference: patent US20080063599A1, “Compounds Which Can Be Used To Diagnose And Monitor Diseases Associated With The Formation Of Amyloid Protein Fibrils” (priority 2002, published 2008)

System: amyloid plaques in mice brains
Assay: MicroPET images of transgenic mice
Format: in vivo
Details: Tg2576 mice; dynamic microPET, total acquisition time 55-77 min
Method: All the animal experiments were performed according to the established animal protocol. The transgenic mice (Tg2576) were anaesthetised via intravenous injection with a 40 uL solution of ketamine and xylazine (4:1) before the injection of the tracer radiolabelled with ^18F: 5-[^18F]-fluoro-8-hydroxy-7-iodoquinoline. The mice were placed in supine position and scanned using microPET. A dynamic microPET study was performed using 15 planes and 15 to 16 frames (dynamic sequence: 6×30 s, 4×1 min, 2×5 min, 2×10 min, and 1-2×20 min) for a total acquisition time of 55-77 min. Images were reconstructed using the appropriate algorithms (Filter-back projection algorithm) and a cut-off frequency of 0.5. Images were reconstructed by means of a filtered iteration resulting in an image resolution of 1.8 mm and a volumetric resolution of about 6 mm^3. Transverse planes were reoriented to obtain the coronal and axial sections of the mice brains. Regional uptake is expressed in activity per gram of tissue.

Oc1c(I)cc([18F])c2cccnc12 [5-[^18F]-fluoro-8-hydroxy-7-iodoquinoline]
detection of amyloid plaques in microPET images: adequate detection of the amyloid plaques
